Values after ≈ are worked out from the molar mass of the structure shown.

This data set can be described thus: physchem. Conditions: pH 7.4 buffer.
The solubility (thermodynamic) is the concentration in solution at equilibrium with solid. The compound `Cn1cc(C2=C(c3cccc(NCC(O)CO)c3)C(=O)NC2=O)c2cc(F)ccc21` (centres undefined) came in with a solubility (thermodynamic) of 4.4 µM (≈ 1.8 µg/mL).
On to `O=C(c1ccc(F)cc1)C1CCN(C(=O)c2cc(F)cc(F)c2)CC1`, for which the solubility (thermodynamic) was determined as 6 µM (≈ 2.08 µg/mL).
As for `Cc1cccc2c3cc(NC(=O)N4CCOCC4)ccc3n(C(C)C)c12`, the thermodynamic solubility is 5.1 µM (≈ 1.79 µg/mL).
The value for `CN(C)S(=O)(=O)n1c2ccccc2c2cc(NC(=O)CCc3ccncc3)ccc21` was 9.5 µM (≈ 4.01 µg/mL); that for `CN(C)CCSc1nc2ccc(Br)cc2cc1-c1ccccc1` was 9.5 µM (≈ 3.68 µg/mL); that for `CN(C)CCCN(C)c1nc2cc(Cl)c(Cl)cc2nc1/C=C/c1ccccc1` was 5.8 µM (≈ 2.41 µg/mL).
The value for `COc1cc2ncnc(Nc3ccc(Br)cc3F)c2cc1OC` was 6.8 µM (≈ 2.57 µg/mL); that for `Cc1ccc(C(=O)N2CCC(C(=O)c3c(C)cc(C)cc3C)CC2)cc1` was 9.3 µM (≈ 3.25 µg/mL).
In turn, `O=C(NCCSCc1c(F)cccc1Cl)Nc1ccccc1` yielded a solubility (thermodynamic) of 5.1 µM (≈ 1.73 µg/mL).
The value for `COc1ccc(NC(=O)c2cccn(CC=C(C)C)c2=O)cc1` was 7.2 µM (≈ 2.25 µg/mL).
On to `Cc1ccc(-c2nnc(-c3ccccc3)o2)cc1`, for which the thermodynamic solubility stood at 6.2 µM (≈ 1.46 µg/mL).
The compound `c1ccc(CSc2nnc(-c3ccco3)c(-c3ccco3)n2)cc1` yielded a solubility (thermodynamic) of 5.2 µM (≈ 1.74 µg/mL).
In turn, `CCN1N=C(c2ccccc2)Cn2c1nc1ccccc12` showed a thermodynamic solubility of 6.9 µM (≈ 1.91 µg/mL).
The compound `COC1=C(c2ccccc2)C(=O)c2ccccc2C1=O` registered a solubility (thermodynamic) of 8.1 µM (≈ 2.14 µg/mL).
`O=S(=O)(Cc1cc(-c2ccccc2)no1)c1ccccc1`: the thermodynamic solubility turned out to be 6.6 µM (≈ 1.98 µg/mL).
Take `Oc1cc(-c2ccccc2)nc2ccc(Cl)cc12`: the thermodynamic solubility came out at 5.9 µM (≈ 1.51 µg/mL).
The value for `O=C(NC1CCCC1)C1CCCN(S(=O)(=O)c2cccc3cccnc23)C1` (centres undefined) was 8.7 µM (≈ 3.37 µg/mL); that for `CCOc1ccccc1C(=O)N1CCC(C(=O)c2ccc(F)cc2)CC1` was 5.8 µM (≈ 2.06 µg/mL); that for `O=C(c1ccc(F)cc1)C1CCN(C(=O)Nc2ccc(F)cc2)CC1` was 4.5 µM (≈ 1.55 µg/mL).
As for `Cc1ccc(C)c(N(C)c2ccnc(Nc3cc(N4CCOCC4)cc(N4CCOCC4)c3)n2)c1`, the thermodynamic solubility turned out to be 5.9 µM (≈ 2.8 µg/mL).
Compound `COc1cc(N2CCNC(=O)C2)ccc1Nc1ncc(Cl)c(-c2cnc3ccccn23)n1` yielded a solubility (thermodynamic) of 4.9 µM (≈ 2.2 µg/mL).
For the compound `COc1cc(N2CCN(CC(=O)N(C)C)CC2)ccc1Nc1ncc(Cl)c(-c2cnc3ccccn23)n1`, the solubility (thermodynamic) worked out at 5 µM (≈ 2.61 µg/mL).
The compound `N#Cc1c(C2CCCNC2)cc(-c2c(O)cccc2OCC2CC2)nc1N` (centres undefined) displayed a thermodynamic solubility of 8.1 µM (≈ 2.95 µg/mL).
The value for `O=C(Nc1cccc(O)c1)c1ccc(OCCCN2CCCC2)cc1OCc1ccc(F)cc1` was 5 µM (≈ 2.32 µg/mL).
`C[C@@H](c1ccc(-c2ccc(F)cc2F)cc1)N1CC[C@@](CCO)(c2ccc(F)cc2)OC1=O` displayed a solubility (thermodynamic) of 5.2 µM (≈ 2.37 µg/mL).
The value for `C=CCN(C(=O)NCc1cccc(C)c1)C1CCN(CCC(c2ccccc2)c2ccccc2)CC1` was 9.1 µM (≈ 4.38 µg/mL); that for `COc1cc2ncnc(Nc3cc(NC(=O)c4ccccc4)ccc3Cl)c2cc1OC` was 10 µM (≈ 4.35 µg/mL).
`Cc1cc(C)c(N2C(=O)CC(Sc3ccccc3N)C2=O)c(C)c1` (centres undefined) displayed a thermodynamic solubility of 9.3 µM (≈ 3.17 µg/mL).
Regarding `COc1cccc(NC(=O)Cn2cc(Nc3ncnc4cc(OC)c(OC)cc34)cn2)c1`, the solubility (thermodynamic) is 4.4 µM (≈ 1.91 µg/mL).
In turn, `CCn1cc(NC(=O)Cc2ccc(Oc3ccnc4cc(OC)c(OC)cc34)cc2)cn1` had a thermodynamic solubility of 10.7 µM (≈ 4.63 µg/mL).
`O=C(Nc1ccccc1)c1ccc2cccc(O)c2n1`: the solubility (thermodynamic) worked out at 6.6 µM (≈ 1.74 µg/mL).
In turn, `CN1CCC(Oc2cccc3ncnc(Nc4ccc(OCc5cscn5)c(Cl)c4)c23)CC1` had a thermodynamic solubility of 4.9 µM (≈ 2.36 µg/mL).
Regarding `Cc1nc(-c2ccc(CN3CCC(N(C)C(=O)Cc4ccc(-n5cnnn5)cc4)CC3)cc2)no1`, the solubility (thermodynamic) came out at 10.2 µM (≈ 4.82 µg/mL).
The value for `CN(C(=O)Cc1ccc(-n2cnnn2)cc1)C1CCN(Cc2nc3c(s2)CCCC3)CC1` was 9.8 µM (≈ 4.43 µg/mL); that for `CN(C(=O)Cc1ccc(-n2cnnn2)cc1)[C@H]1CCN(Cc2ccc(C(F)(F)F)cc2)C[C@H]1F` was 8.1 µM (≈ 3.86 µg/mL); that for `CN(C(=O)Cc1ccc(S(C)(=O)=O)cc1)[C@@H]1CCN(Cc2nc3ccccc3s2)C[C@@H]1F` was 9.1 µM (≈ 4.33 µg/mL).
The value for `CCn1cc(NC(=O)Cc2ccc(Oc3ccnc4ccc(OC)cc34)cc2OC)cn1` was 7.1 µM (≈ 3.07 µg/mL); that for `CCc1cc(NC(=O)Cc2ccc(Oc3ccnc4cc(OC)ccc34)cc2OC)no1` was 4.2 µM (≈ 1.82 µg/mL).
Turning to `CCc1c[nH]nc1NC(=O)Cc1ccc(Oc2ccnc3cc(OC)ccc23)cc1OC`, the solubility (thermodynamic) was 7.4 µM (≈ 3.2 µg/mL).
In turn, `CCc1cc(NC(=O)Cc2ccc(Oc3ccnc4cc(OC)ccc34)cc2OC)n[nH]1` yielded a thermodynamic solubility of 8.5 µM (≈ 3.68 µg/mL).
In the case of `COc1cc(Oc2ccnc3cc(OC)c(OC)cc23)ccc1CC(=O)Nc1cn(C)nc1C`, the thermodynamic solubility worked out at 8.9 µM (≈ 4.12 µg/mL).
In turn, `COc1ccc2c(Oc3ccc(CC(=O)Nc4cnn(C)c4C)c(OC)c3)ccnc2c1` came in with a thermodynamic solubility of 10.7 µM (≈ 4.63 µg/mL).
With `COC(=O)N[C@H](C(=O)N1CCC[C@H]1c1nc(-c2ccc(-c3ccc(-c4c[nH]c([C@@H]5CCCN5C(=O)[C@@H](NC(=O)OC)C(C)C)n4)cc3)cc2)c[nH]1)C(C)C` the figure was 10.2 µM (≈ 7.54 µg/mL); with `CS(=O)(=O)Cc1cc(N2CCOCC2)nc(-c2ccc3[nH]ccc3c2)n1`, 9.3 µM (≈ 3.46 µg/mL).
The value for `CCc1ccc(-c2cc(O)c3ccccc3n2)cc1` was 4 µM (≈ 0.997 µg/mL); that for `CC(C)Oc1cc(O[C@@H](C)Cc2ccccc2)cc(C(=O)Nc2ccc(C(=O)O)cn2)c1` was 9.1 µM (≈ 3.95 µg/mL).
On to `COc1cc2ncnc(Nc3cccc(Cl)c3F)c2cc1CN1CCCC[C@@H]1C(N)=O`, for which the solubility (thermodynamic) is 10 µM (≈ 4.44 µg/mL).
The value for `COc1cc2ncnc(Nc3ccc(F)c(Cl)c3)c2cc1CN1CCC[C@@H]1C(N)=O` was 5.1 µM (≈ 2.19 µg/mL); that for `CC(C)(C)OC(=O)N1CCN(c2cnc(OCc3ccc(S(C)(=O)=O)cc3)cn2)CC1` was 4.7 µM (≈ 2.11 µg/mL).
Consider `C[C@@H]1CN(C(=O)OC(C)(C)C)C[C@H](C)N1c1ncc(OCc2ccc(S(C)(=O)=O)cc2)cn1`, for which the solubility (thermodynamic) was determined as 4.1 µM (≈ 1.95 µg/mL).
In turn, `CC(C)(C)OC(=O)N1C[C@@H]2CC[C@H]1CN2c1ncc(OCc2ccc(S(C)(=O)=O)cc2)cn1` came in with a solubility (thermodynamic) of 7.1 µM (≈ 3.37 µg/mL).
For `C[C@@H]1CN(C(=O)OC(C)(C)C)CCN1c1ncc(OCC2CCN(S(C)(=O)=O)CC2)cn1`, the thermodynamic solubility amounted to 5 µM (≈ 2.35 µg/mL).
The compound `COc1cc(CCc2cc(Nc3ccnc(NCc4cc(C)on4)n3)n[nH]2)cc(OC)c1` showed a solubility (thermodynamic) of 4.3 µM (≈ 1.87 µg/mL).
The value for `Oc1cc(-c2ccc3c(c2)OCO3)nc2ccccc12` was 6.2 µM (≈ 1.64 µg/mL); that for `Cc1cc(C)cc(-c2[nH]c3sc(C(C)(C)C(=O)N4C5CCC4CC5)cc3c2CCN2CCC(N3CCOCC3)CC2)c1` was 7.2 µM (≈ 4.24 µg/mL).
Turning to `OC1CCN(CCOc2n[nH]c3ncnc(Nc4ccc(OCc5cccc(F)c5)c(Cl)c4)c23)CC1`, the solubility (thermodynamic) was 4.5 µM (≈ 2.31 µg/mL).
`C[C@@H](Oc1cccc2ncnc(Nc3ccc4c(cnn4Cc4ccccn4)c3)c12)C(N)=O` yielded a thermodynamic solubility of 4 µM (≈ 1.76 µg/mL).
Compound `CNC(=O)[C@@H](C)Oc1cccc2ncnc(Nc3ccc4c(cnn4Cc4ccccn4)c3)c12` showed a thermodynamic solubility of 6 µM (≈ 2.72 µg/mL).
With `C[C@H](Oc1cccc2ncnc(Nc3ccc4c(cnn4Cc4cccc(F)c4)c3)c12)C(=O)N(C)C` the figure was 8.1 µM (≈ 3.92 µg/mL); with `C[C@@H](Oc1cccc2ncnc(Nc3ccc4c(cnn4Cc4cscn4)c3)c12)C(N)=O`, 8.7 µM (≈ 3.88 µg/mL).
The compound `CNC(=O)c1ccc(CN2CCC(c3ccc(C(=O)Nc4ccccc4N)cc3)CC2)cc1` registered a solubility (thermodynamic) of 4.8 µM (≈ 2.12 µg/mL).
Consider `Cc1ccc(Oc2ccc(Nc3ncnc4cccc(O[C@H](C)C(=O)NCCO)c34)cc2C)cn1`, for which the thermodynamic solubility was determined as 4.2 µM (≈ 1.99 µg/mL).
Compound `CO[C@]1(c2cc(F)cc(S(=O)(=O)c3ccc(/C(C)=N/O)cc3)c2)CCO[C@@H](C)C1` came in with a solubility (thermodynamic) of 4.7 µM (≈ 1.98 µg/mL).
In turn, `CCc1cc(OCc2ccc(-c3ccccc3-c3nnn[nH]3)cc2)c2ccccc2n1` returned a thermodynamic solubility of 7.8 µM (≈ 3.18 µg/mL).
The value for `O=C(N1CCC(c2ccncc2)CC1)N1CCN(S(=O)(=O)c2ccc(Cl)cc2)CC1` was 8.7 µM (≈ 3.91 µg/mL); that for `O=C(N[C@@H](Cc1ccccc1)C(=O)N1CCC(O)CC1)c1cc2cc(Cl)ccc2[nH]1` was 5.1 µM (≈ 2.17 µg/mL).
`CC(C)n1c2ccccc2c2c(F)c(NC(=O)N3CCOCC3)c(F)cc21` gave a solubility (thermodynamic) of 4.6 µM (≈ 1.72 µg/mL).
The compound `COc1cc2c(Nc3c(Cl)ccc4c3OCO4)ncnc2cc1OCc1ccnc(C#N)c1` had a thermodynamic solubility of 10.2 µM (≈ 4.71 µg/mL).
`COc1ccc(I)c(Sc2nc3c(N)ncnc3n2CCNCC(C)(C)C)c1` registered a thermodynamic solubility of 4 µM (≈ 2.05 µg/mL).
The value for `COc1cc(Nc2ncnc3[nH]nc(OCCN4CCC(O)CC4)c23)ccc1OCc1cccc(F)c1` was 5.6 µM (≈ 2.85 µg/mL); that for `Nc1ccccc1NC(=O)c1ccc(C2CCN(Cc3ccc(C(=O)NC4CC4)cc3)CC2)cc1` was 6.6 µM (≈ 3.09 µg/mL).
Consider `CCCCC(CC)CNC(=O)c1ccc2c(c1)c(Cc1ccc(C(=O)NS(=O)(=O)c3ccccc3C)cc1OC)cn2C` (centres undefined), for which the solubility (thermodynamic) is 6.5 µM (≈ 3.92 µg/mL).
For `C[C@@H](CN(C)C(=O)CO)Oc1cccc2ncnc(Nc3ccc(OCc4ccccn4)c(Cl)c3)c12`, the thermodynamic solubility came out at 8.9 µM (≈ 4.52 µg/mL).
In the case of `CN(C)C(=O)COc1cccc2ncnc(Nc3ccc4c(cnn4Cc4ccccn4)c3)c12`, the thermodynamic solubility worked out at 10.7 µM (≈ 4.85 µg/mL).
For `CC(C)Oc1cc(OCCN2CCOCC2)cc2ncnc(Nc3c(Cl)ccc4c3OCO4)c12`, the thermodynamic solubility was 4.4 µM (≈ 2.14 µg/mL).
On to `Cc1cc(Nc2ncnc3[nH]nc(OCCN4CCC(O)CC4)c23)ccc1OCc1cccc(F)c1`, for which the solubility (thermodynamic) stood at 6.8 µM (≈ 3.35 µg/mL).
With `CC(C)Oc1cc(O[C@H](C)Cc2ccccc2)cc(C(=O)Nc2ccc(C(=O)O)cn2)c1`, the solubility (thermodynamic) turned out to be 8.5 µM (≈ 3.69 µg/mL).
Regarding `CCOC(=O)c1nn(-c2ccccc2)c(=O)c2c(N)scc12`, the solubility (thermodynamic) was found to be 6.2 µM (≈ 1.96 µg/mL).
Take `Cc1ncc(-c2ccnc(Nc3ccc(N4CCN(S(C)(=O)=O)CC4)cc3)n2)n1C(C)C`: the solubility (thermodynamic) was 8.9 µM (≈ 4.05 µg/mL).
`COc1cc2ncnc(Nc3ccc(C)c(O)c3)c2cc1OC` gave a thermodynamic solubility of 4.4 µM (≈ 1.37 µg/mL).
The value for `CS(=O)(=O)Nc1cccc(Nc2nccc(Nc3c(Cl)ccc4c3OCO4)n2)c1` was 7.2 µM (≈ 3.12 µg/mL); that for `NC(=O)Nc1sc(-c2ccc(OC(F)(F)F)cc2)cc1C(N)=O` was 11 µM (≈ 3.8 µg/mL); that for `COc1cc(Nc2cc(Oc3ccc(C)nc3C)ccn2)cc(OC)c1OC` was 6.8 µM (≈ 2.59 µg/mL).
With `NS(=O)(=O)c1ccc(Nc2nccc(-c3cnc4ccccn34)n2)cc1` the figure was 6.5 µM (≈ 2.38 µg/mL).
